Experimental data from patent US9944654B2, “Nargenicin compounds and uses thereof as antibacterial agents” (priority 2014, dated 2018).
Values after ≈ are worked out from the molar mass of the structure shown. Read-outs that look alike come from different tables or passages of the source.

Key:
[1] = biological target: T1, E. coli DnaE (DNA polymerase III α-subunit from Escherichia coli) (Escherichia coli, UniProt P10443); assay: In vitro DnaE single enzyme assay (E. coli); type: biochemical; conditions: E. coli DnaE IC50
T1 construct: EcDnaE (E. coli DnaE residues 1-1160); 6xHis (N); made in house; host or cells: E. coli BL21(DE3)
Method: (§1) Plasmids encoding EcDnaE (E. coli DnaE residues 1-1160) and SaDnaE (S. aureus DnaE residues 1-1065) with 6×His N-terminal tags, were overexpressed in BL21(DE3) and BL21-AI cells (Invitrogen), respectively. Cells were grown in LB media to an OD ˜0.45 pelleted and then resuspended in Minimal Media, as described in Pryor et al. (1997, Protein Expr Purif. 10:309-19), and inducer (0.4 mM IPTG or 0.2% arabinose) for 21 hours at 18° C. at 220 rpm. Cells were then harvested, frozen for 20 minutes at −80° C. and thawed. Pellets were resuspended in 1× Talon buffer (50 mM Sodium Phosphate, 300 mM Sodium Chloride, pH 7.4) +10% glycerol +Roche PI's (-EDTA). Cells were lysed with two passes through a French press, then centrifuged for 45 minutes at 40,000 rpm (70Ti, Beckman). Supernatant was bound to 5 mL TALON resin (CLONTECH) for 1 hour at room temperature on Nutator. TALON resin was washed with 10 mM imidizole, and DnaE was eluted with 250 mM imidizole. Eluate was concentrated and run on a size exclusion column (SEC200, GE Healthcare) in the following buffer; 25 mM HEPES, 30 mM NaCl,1 mM CaCl2, 5% glycerol, pH 7.9. Pool SEC fractions based on SDS-PAGE run, aliquot, freeze, and store at -80° C.
(§2) DnaE was diluted in 50 mM potassium phosphate pH 7.5, 5 mM BME, 10% glycerol and 200 mM NaCl prior to use.
(§3) The purpose of the DnaE single enzyme assay is to determine the ability of compounds to inhibit the DNA polymerase III α-subunit homolog from Staphylococcus aureus or the α-subunit from Escherichia coli without the other components of the replication machinery. The DnaE single enzyme assay was a modified version of the method, Standard Pol III Assay Using Activated DNA and Four dNTPs, described by Butler et al., 2008, Methods in Molecular Medicine: New Antibiotic Targets 142:25-36. Briefly, in 96-well plates, enzyme was added to a mixture containing 30 mM Tris-HCl pH 7.5, 20% glycerol, 4 mM DTT, 10 mM Mg acetate, 0.025 mM dATP, 0.025 mM dGTP, 0.025 mM dc:TP, 0.011 mM ^3H-dTTP 1 mCi/ml (Perkin-Elmer), and 0.298 mg/mL Dnase I (Sigma) treated “activated” Calf Thymus DNA (Worthington Biochemical). The assay was set up so that 5 μl of compound was distributed to the plates, 90 μl of reaction mix was added to the compound, and 5 μl of enzyme was added to start the reaction. Assays were initiated by the addition of 0.8 μg/ml E. coli or 0.05 μg/ml S. aureus DnaE, incubated for 30 min at 30° C., and terminated by the addition of a 20% trichloroacetic acid and 0.2% sodium pyrophosphate solution. Precipitated labeled DNA was collected on Glass-fiber Filtermat A using Micro96 Harvester, and the filters were washed, dried, and counted in a Microbeta Trilux (Perkin Elmer). Serial dilutions of compounds (in DMSO) were added to the plates before enzyme addition.

[2] = biological target: T2, S. aureus DnaE (DNA polymerase III α-subunit homolog from Staphylococcus aureus) (Staphylococcus aureus, UniProt Q5HF71); assay: biochemical; type: biochemical
T2 construct: SaDnaE (S. aureus DnaE residues 1-1065); 6xHis (N); made in house; host or cells: E. coli BL21-AI
T2 sequence (Q5HF71 1-1065): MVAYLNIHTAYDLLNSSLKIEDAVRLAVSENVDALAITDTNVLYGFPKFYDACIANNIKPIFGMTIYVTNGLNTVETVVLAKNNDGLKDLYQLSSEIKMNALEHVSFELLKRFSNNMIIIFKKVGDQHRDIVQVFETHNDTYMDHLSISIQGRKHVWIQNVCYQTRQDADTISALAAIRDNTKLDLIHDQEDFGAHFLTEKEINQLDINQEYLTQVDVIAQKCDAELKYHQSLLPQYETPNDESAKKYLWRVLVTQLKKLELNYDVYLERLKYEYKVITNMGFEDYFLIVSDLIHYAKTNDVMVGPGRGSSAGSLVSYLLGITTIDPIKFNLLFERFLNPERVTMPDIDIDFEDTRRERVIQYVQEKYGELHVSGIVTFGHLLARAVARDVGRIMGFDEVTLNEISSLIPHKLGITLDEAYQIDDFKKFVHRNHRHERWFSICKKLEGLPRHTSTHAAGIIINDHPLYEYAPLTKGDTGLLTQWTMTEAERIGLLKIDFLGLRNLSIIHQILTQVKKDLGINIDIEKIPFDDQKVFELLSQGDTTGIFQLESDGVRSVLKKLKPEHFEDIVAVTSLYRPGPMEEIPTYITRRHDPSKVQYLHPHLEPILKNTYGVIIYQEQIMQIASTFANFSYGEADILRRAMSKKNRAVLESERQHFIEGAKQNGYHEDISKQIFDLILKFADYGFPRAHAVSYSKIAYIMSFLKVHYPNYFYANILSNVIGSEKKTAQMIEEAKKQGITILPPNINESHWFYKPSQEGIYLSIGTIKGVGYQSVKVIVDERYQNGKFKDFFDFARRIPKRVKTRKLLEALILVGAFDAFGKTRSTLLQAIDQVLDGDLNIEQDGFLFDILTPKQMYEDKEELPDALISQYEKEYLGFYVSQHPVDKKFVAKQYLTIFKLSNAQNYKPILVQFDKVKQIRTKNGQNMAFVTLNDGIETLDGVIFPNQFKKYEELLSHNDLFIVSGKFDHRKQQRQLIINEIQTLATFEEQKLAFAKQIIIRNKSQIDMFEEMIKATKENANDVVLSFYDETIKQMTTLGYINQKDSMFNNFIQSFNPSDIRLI
Method: as §1, §2, §3

[3] = system: Escherichia coli MB5747 (LS 883, tolC); assay: microbe, parasite or virus in culture; type: cell-based; conditions: Escherichia coli, read-out: E. coli LS883 tolC (MIC), MHII broth; * = some reduction of growth versus control at […]
[4] = system: Pseudomonas aeruginosa MB5890 (CB1101, efflux-deleted); assay: microbe, parasite or virus in culture; type: cell-based; conditions: Pseudomonas aeruginosa, read-out: P. aeruginosa MB5890 efflux-del (MIC), MHII broth; * = some reduction of growth versus control at […]
[5] = system: Streptococcus pneumoniae MB6357 (CL 2883); assay: Nargenicin antibacterial assay (MIC), S. pneumoniae; type: cell-based; conditions: Streptococcus pneumoniae
[6] = system: Staphylococcus aureus MB6266 (MRSA COL); assay: Nargenicin antibacterial assay (MIC), S. aureus; type: cell-based; conditions: Staphylococcus aureus, MRSA, read-out: S. aureus COL (MIC), MHII broth + 50% human serum; * = some reduction of growth versus control at […]
[7] = read-out: S. aureus DnaE IC50 (converted)
[8] = read-out: S. pneumoniae MB2883 (MIC), Isosensitest broth, * = some reduction of growth versus control at […]

T1 sequence (P10443 whole entry, the tested form may be a part): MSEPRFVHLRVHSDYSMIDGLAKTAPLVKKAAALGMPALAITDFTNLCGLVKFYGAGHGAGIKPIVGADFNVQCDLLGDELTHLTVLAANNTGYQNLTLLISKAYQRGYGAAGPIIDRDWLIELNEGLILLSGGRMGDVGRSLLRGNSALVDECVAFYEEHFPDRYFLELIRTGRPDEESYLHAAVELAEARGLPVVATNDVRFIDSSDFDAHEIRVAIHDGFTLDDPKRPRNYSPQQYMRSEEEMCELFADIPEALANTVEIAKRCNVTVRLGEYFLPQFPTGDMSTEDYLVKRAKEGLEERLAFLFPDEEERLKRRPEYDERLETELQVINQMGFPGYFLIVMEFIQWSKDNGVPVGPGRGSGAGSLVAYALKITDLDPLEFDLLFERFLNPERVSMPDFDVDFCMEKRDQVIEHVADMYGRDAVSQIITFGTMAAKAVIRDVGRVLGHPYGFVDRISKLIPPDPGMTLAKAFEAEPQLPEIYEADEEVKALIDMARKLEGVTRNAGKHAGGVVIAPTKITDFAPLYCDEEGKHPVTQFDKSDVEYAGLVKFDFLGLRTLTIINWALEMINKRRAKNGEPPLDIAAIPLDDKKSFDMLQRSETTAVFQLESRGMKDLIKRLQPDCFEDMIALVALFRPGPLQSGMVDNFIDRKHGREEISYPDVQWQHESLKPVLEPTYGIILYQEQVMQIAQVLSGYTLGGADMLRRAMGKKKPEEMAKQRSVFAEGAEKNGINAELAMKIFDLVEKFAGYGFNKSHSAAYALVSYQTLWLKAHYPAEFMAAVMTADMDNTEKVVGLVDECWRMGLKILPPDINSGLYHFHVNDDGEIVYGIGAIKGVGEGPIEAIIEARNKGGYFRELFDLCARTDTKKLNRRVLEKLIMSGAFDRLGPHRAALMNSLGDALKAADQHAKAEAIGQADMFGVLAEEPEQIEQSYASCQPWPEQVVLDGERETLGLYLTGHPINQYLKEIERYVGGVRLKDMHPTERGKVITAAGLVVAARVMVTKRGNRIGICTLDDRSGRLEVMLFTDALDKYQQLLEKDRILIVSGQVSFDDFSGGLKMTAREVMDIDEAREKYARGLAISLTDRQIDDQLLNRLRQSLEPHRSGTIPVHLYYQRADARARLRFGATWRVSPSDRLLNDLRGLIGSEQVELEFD

SMILES | IC50 [1] [µM] | IC50 [2, 7] [µM] | MIC [3] [µg/mL] | MIC [4] [µg/mL] | MIC [5, 8] [µg/mL] | MIC ([5]; read-out: S. pneumoniae MB2883 (MIC)) [µg/mL] | IC50 ([2]; S. aureus DnaE IC50) [µM] | MIC [6] [µg/mL]
CO[C@H]1C[C@H]2C=C[C@H]3[C@H]4O[C@]2(/C(C)=C/[C@@H](C)[C@@H]([C@@H](C)OCSC)OC1=O)[C@@H]3C(=O)[C@@H](C)[C@H]4OC(=O)c1ccc[nH]1 [Example 58] | 36.6 | > 174 | > 8 | > 128 | > 128 | – | – | –
CO[C@H]1C[C@H]2C=C[C@H]3[C@H]4O[C@]2(/C(C)=C/[C@@H](C)[C@@H]([C@H](C)N2C(=O)c5ccccc5C2=O)OC1=O)[C@@H]3[C@H](O)[C@@H](C)[C@H]4OC(=O)c1ccc[nH]1 [Example 172] | 63.6 | ~0.00776 | 16 (≈ 24.8 µM) | > 128 | > 128 | – | – | –
CO[C@H]1C[C@H]2C=CC3C4[C@H](O)[C@@H](C)[C@@H](OC(=O)c5ccc[nH]5)[C@@H]3O[C@]42/C(C)=C/[C@@H](C)[C@@H]([C@@H](C)OC(=O)C(=O)OCc2cccnc2)OC1=O.O=C(O)C(F)(F)F [Example 208] | 3.41 | < 0.00757 | 1 | 32 | – | > 128 | – | –
CO[C@H]1CC2C=C[C@H]3[C@H]4O[C@]2(/C(C)=C/[C@@H](C)[C@@H](C(C)O)OC1=O)[C@@H]3[C@H](O)[C@@H](C)[C@H]4OC(=O)c1cc(-c2ccsc2)c[nH]1 (some centres unmarked) [Example 165] | – | – | 16 (≈ 26.8 µM) | > 128 | 8 (≈ 13.4 µM) | – | 4.85 | > 128
CO[C@H]1C[C@H]2C=C[C@H]3[C@H]4O[C@]2(/C(C)=C/[C@@H](C)[C@@H]([C@@H](C)O)OC1=O)[C@@H]3[C@H](O)[C@@H](C)[C@H]4O [Example 152] | – | – | 16 (≈ 37.9 µM) | 16 (≈ 37.9 µM) | > 128 | – | – | > 128
CCN[C@H]1[C@H](C)[C@@H](O)[C@@H]2[C@H]3C=C[C@@H]4C[C@H](OC)C(=O)O[C@H]([C@@H](C)O)[C@H](C)/C=C(\C)[C@@]24O[C@H]31 [Example 147, (3R,4S,7S,8aS,10aR,11R,12S,13S,14R,14aS,14bS,E)-12-(ethylamino)-14-hydroxy-4-((R)-1-hydroxyethyl)-7-methoxy-1,3,13-trimethyl-3,4,8,8a,10a,11,12,13,14,14a-decahydro-11,14b-epoxynaphtho[2,1-e]oxecin-6(7H)-one] | > 222 | 0.667 | > 128 | > 128 | > 128 | – | – | –
